How the values were obtained:
POLCO [1] = test: Post-emergence herbicidal efficacy at 80 g/ha, POLCO; format: in vivo, Polygonum convolvulus; conditions: visual rating about 3 weeks after treatment vs untreated controls
Description: (§1) Seeds of monocotyledonous and dicotyledonous weeds and crop plants were placed in sandy loam in plastic or organic planting pots, covered with soil and cultivated in a greenhouse under controlled growth conditions. 2 to 3 weeks after sowing, the test plants were treated at the one-leaf stage. The compounds of the invention, formulated in the form of wettable powders (WP) or as emulsion concentrates (EC), were then sprayed onto the green parts of the plants as aqueous suspension or emulsion with addition of 0.5% additive at a water application rate of 600 l/ha (converted). After the test plants had been kept in the greenhouse under optimum growth conditions for about 3 weeks, the activity of the preparations was rated visually in comparison to untreated controls. For example, 100% activity=the plants have died, 0% activity=like control plants. Tables B1 to B10 below show the effects of selected compounds of the general formula (I) according to Table 1 on various harmful plants and an application rate corresponding to 80 g/ha, which were obtained by the experimental procedure mentioned above.

VERPE: Veronica persica [2] = test: Post-emergence herbicidal efficacy at 80 g/ha, VERPE; format: in vivo; conditions: visual rating about 3 weeks after treatment vs untreated controls
Method in brief: (§2)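 Greenhouse plants grown in sandy loam were sprayed at the one-leaf stage, 2 to 3 weeks after sowing, with WP or EC formulations in water containing 0.5% additive at 600 l/ha. Visual rating against untreated controls came about 3 weeks later (100% = dead, 0% = as control).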

[3] = system: ECHCG: Echinochloa crus-galli; test: Pre-emergence herbicide efficacy at 80 g/ha, ECHCG; format: in vivo; conditions: scored visually after about 3 weeks
Excerpt: (§3) Seeds of monocotyledonous and dicotyledonous weed plants and crop plants were placed in plastic or organic planting pots and covered with soil. The compounds of the invention, formulated in the form of wettable powders (WP) or as emulsion concentrates (EC), were then applied to the surface of the covering soil as aqueous suspension or emulsion with addition of 0.5% additive at a water application rate equivalent to 600 l/ha. After the treatment, the pots were placed in a greenhouse and kept under good growth conditions for the test plants. After about 3 weeks, the efficacy of the preparations was scored visually in comparison with untreated controls as percentages. For example, 100% activity=the plants have died, 0% activity=like control plants. Tables D1 to D12 below show the effects of selected compounds of the general formula (I) according to Table 1 on various harmful plants and an application rate corresponding to 80 g/ha, which were obtained by the experimental procedure mentioned above.

[4] = system: DIGSA: Digitaria sanguinalis; test: Post-emergence herbicidal efficacy at 80 g/ha, DIGSA; format: in vivo; conditions: visual rating about 3 weeks after treatment vs untreated controls
Description: as §1

[5] = system: ALOMY: Alopecurus myosuroides; test: Post-emergence herbicidal efficacy at 80 g/ha, ALOMY; format: in vivo; conditions: visual rating about 3 weeks after treatment vs untreated controls
Description: as §1

VERPE: Veronica persica [6] = test: Pre-emergence herbicide efficacy at 80 g/ha, VERPE; format: in vivo; conditions: scored visually after about 3 weeks
Method in brief: (§4)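 Pre-emergence treatment: aqueous suspension or emulsion (0.5% additive, 600 l/ha water) applied at 80 g/ha to the covering soil over sown seeds. Visual percent-damage rating against untreated plants followed after about 3 greenhouse weeks, 0% meaning unaffected and 100% meaning dead.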

[7] = system: AMARE: Amaranthus retroflexus; test: Pre-emergence herbicide efficacy at 80 g/ha, AMARE; format: in vivo; conditions: scored visually after about 3 weeks
Method in brief: as §4

[8] = system: AMARE: Amaranthus retroflexus; test: Post-emergence herbicidal efficacy at 80 g/ha, AMARE; format: in vivo; conditions: visual rating about 3 weeks after treatment vs untreated controls
Method in brief: as §2

[9] = system: MATIN: Matricaria inodora; test: Pre-emergence herbicide efficacy at 80 g/ha, MATIN; format: in vivo; conditions: scored visually after about 3 weeks
Excerpt: as §3

LOLRI: Lolium rigidum = test: Pre-emergence herbicide efficacy at 80 g/ha, LOLRI; format: in vivo; conditions: scored visually after about 3 weeks
Excerpt: as §3

SETVI: Setaria viridis [10] = test: Post-emergence herbicidal efficacy at 80 g/ha, SETVI; format: in vivo; conditions: visual rating about 3 weeks after treatment vs untreated controls
Description: as §1

[11] = system: DIGSA: Digitaria sanguinalis; test: Pre-emergence herbicide efficacy at 80 g/ha, DIGSA; format: in vivo; conditions: scored visually after about 3 weeks
Method in brief: as §4

[12] = system: ALOMY: Alopecurus myosuroides; test: Pre-emergence herbicide efficacy at 80 g/ha, ALOMY; format: in vivo; conditions: scored visually after about 3 weeks
Excerpt: as §3

[13] = system: ABUTH: Abutilon theophrasti; test: Post-emergence herbicidal efficacy at 80 g/ha, ABUTH; format: in vivo; conditions: rated visually after about 3 weeks vs untreated controls, 100% = plants have died, 0% = like control plants
Description: as §1

SETVI: Setaria viridis [14] = test: Pre-emergence herbicide efficacy at 80 g/ha, SETVI; format: in vivo; conditions: scored visually after about 3 weeks
Excerpt: as §3

POLCO [15] = test: Pre-emergence herbicide efficacy at 80 g/ha, POLCO; format: in vivo; conditions: Polygonum convolvulus, scored visually after about 3 weeks
Method in brief: as §4

[16] = system: ECHCG: Echinochloa crus-galli; test: Post-emergence herbicidal efficacy at 80 g/ha, ECHCG; format: in vivo; conditions: visual rating about 3 weeks after treatment vs untreated controls
Description: as §1

[17] = system: ABUTH: Abutilon theophrasti; test: Pre-emergence herbicide efficacy at 80 g/ha, ABUTH; format: in vivo; conditions: scored visually after about 3 weeks
Method in brief: as §4

SMILES: FC(F)c1cc(-c2c(Cl)cccc2Cc2ncc(Cl)cn2)on1 [Example 1-140]
- Post-emergence efficacy against POLCO (POLCO [1]): 100%
- Post-emergence efficacy against VERPE (VERPE: Veronica persica [2]): 100%
- Pre-emergence efficacy against ECHCG in % [3]: 100%
- Post-emergence efficacy against DIGSA [4]: 90%
- Post-emergence efficacy against ALOMY [5]: 80%
- Pre-emergence efficacy against VERPE in % (VERPE: Veronica persica [6]): 100%
- Pre-emergence efficacy against AMARE in % [7]: 100%
- Post-emergence efficacy against AMARE [8]: 100%
- Pre-emergence efficacy against MATIN in % [9]: 80%
- Pre-emergence efficacy against LOLRI in % (LOLRI: Lolium rigidum): 90%
- Post-emergence efficacy against SETVI (SETVI: Setaria viridis [10]): 80%
- Pre-emergence efficacy against DIGSA in % [11]: 100%
- Pre-emergence efficacy against ALOMY in % [12]: 90%
- Post-emergence efficacy at 80 g/ha against ABUTH in % [13]: 100%
- Pre-emergence efficacy against SETVI in % (SETVI: Setaria viridis [14]): 100%
- Pre-emergence efficacy against POLCO in % (POLCO [15]): 90%
- Post-emergence efficacy against ECHCG [16]: 90%
- Pre-emergence efficacy against ABUTH in % [17]: 100%

From patent publication US20250221410A1, “SUBSTITUTED 2-C-AZINES AND SALTS THEREOF, AND USE THEREOF AS HERBICIDAL ACTIVE SUBSTANCES” (BAYER AKTIENGESELLSCHAFT, priority 2022, published 2025)
